Test results from patent publication US3933782A, “(N-Acetyl)-Pro-D-Phe-Trp-Ser-Tyr-D-Ala-Leu-Arg-Pro-NHEt and intermediates” (American Home Products Corporation, priority 1974, dated 1976).
Where a SMILES comes first, the peptide text is derived from it. [ ]: non-standard residue; d: D form. pGlu = O=C1CC[C@@H](C(=O)O)N1

Assays:
ovulation = conditions: as described in Ser. No. 402,958, now U.S. Pat. No. 3,855,199; cited from earlier work
[1] = system: ovulation in mature Sprague-Dawley rats; conditions: same rat ovulation test; absence of or significant decrease in number of ova is the criterion
Experimental: The test was conducted with mature Sprague-Dawley rats, normally cycling, unanesthetized, proestrous rats. On the afternoon of proestrous, each rat in the test group received six subcutaneous injections of the acetate salt of formula I in corn oil, each injection being given a half hour following the previous injection. The rats are sacrificed the next morning and the number of animals ovulating and the number of ova shed are recorded following the procedure described by E. S. France, Neuroendocrinology 6, pp 77-89 (1970). The absence of or a significant decrease in the number of ova is the criterion for an anti-ovulation effect.

Compound | anti-ovulatory activity (result in words) (ovulation) | antiovulatory activity (result in words) [1]
[D-Phe^2 -D-Ala^6 ]-LRF | having anti-ovulatory activity | –
CCNC(=O)[C@@H]1CCCN1C(=O)[C@H](CCCNC(=N)N)NC(=O)[C@H](CC(C)C)NC(=O)[C@@H](C)NC(=O)[C@H](Cc1ccc(O)cc1)NC(=O)[C@H](CO)NC(=O)[C@H](Cc1c[nH]c2ccccc12)NC(=O)[C@@H](Cc1ccccc1)NC(=O)[C@@H]1CCC(=O)N1 [p-Glu-D-Phe-Trp-Ser-Tyr-D-Ala-Leu-Arg-Pro-NHEt] ([pGlu][dF]WSY[dA]LRP-NHEt) | – | devoid of antiovulatory activity
